Source: patent US20130317027A1, “COMPOUNDS AND THERAPEUTIC USES THEREOF” (Myrexis, Inc, priority 2010, published 2013)

Tested on: cell lines (cancer, normal and primary cells)
Experiment: NA Rescue assay (cytotoxicity with nicotinic acid added)
Assay type: cell-based
Conditions: fixed dose
Method: Cell lines were treated with a fixed dose of Exemplary Compound A and screened for NA rescue and Naprt1 expression by immunoblotting and quantitative RT-PCR (Table 7). […] The 176 cell lines included 5 normal (non-cancerous) cells and 3 primary cells (italicized in the table), all of which rescued. Naprt1 was quantified by western blotting and q-RT-PCR in 164 and 123 of the 176 cell lines, respectively. […] A statistically significant (p value <0.0001) correlation existed between NA rescue phenotype and Naprt1 protein or mRNA expression levels.
Additional cancer cell lines were treated with Exemplary Compounds A, C, D, E, F, G and H (identified below) (Table 8). The NA rescue phenotype of a particular cancer cell line was maintained for all Nampt inhibitors tested.

O=C(NCc1cccnc1)Nc1ccc(COc2ccccc2-c2ccccc2)cc1 [Exemplary Compound A]
NA rescue (A549 cells, lung (NSCLC)): yes | NA rescue (ACHN cells, kidney): yes | NA rescue (AsPC-1 cells, pancreas): yes | NA rescue (BEAS-2B cells, lung (normal)): yes | NA rescue (BT-474 cells, breast): yes | NA rescue (BxPC-3 cells, pancreas): yes | NA rescue (CCRF-CEM cells, lymphocytic leukemia): yes | NA rescue (CFPAC-1 cells, pancreas): yes | NA rescue (CHLA-90 cells, brain, neuroblastoma): no | NA rescue (Calu-1 cells, lung (NSCLC)): yes | NA rescue (Calu-6 cells, lung (NSCLC)): yes | NA rescue (Capan-1 cells, pancreas): yes | NA rescue (DBTRG-05MG cells, brain, glioblastoma): yes | NA rescue (DEL cells, lymphoma): partial | NA rescue (DU145 cells, prostate): yes | NA rescue (DU4475 cells, breast): yes | NA rescue (Daoy cells, brain, medulloblastoma): yes | NA rescue (Daudi cells, lymphoma): no | NA rescue (EKVX cells, lung (NSCLC)): yes | NA rescue (H4 cells, brain, neuroglioma): partial | NA rescue (H9 cells, lymphoma): no | NA rescue (HCC78 cells, lung (NSCLC)): no | NA rescue (HOP18 cells, lung (NSCLC)): yes | NA rescue (HOP62 cells, lung (NSCLC)): yes | NA rescue (HOP92 cells, lung (NSCLC)): yes | NA rescue (HOS cells, osteosarcoma): no | NA rescue (HepG2 cells, hepatocellular carcinoma): no | NA rescue (Hs683 cells, brain, glioma): yes | NA rescue (Hs766T cells, pancreas): yes | NA rescue (Huh7 cells, hepatocellular carcinoma): yes | NA rescue (IMR-32 cells, brain, neuroblastoma): no | NA rescue (IMR-90 cells, lung (normal)): yes | NA rescue (JJN3 cells, myeloma (plasma cell leukemia)): yes | NA rescue (Jurkat cells, lymphocytic leukemia): yes | NA rescue (KARPAS-299 cells, lymphocytic leukemia): no | NA rescue (KELLY cells, brain, oligodendroglioma): no | NA rescue (KNS-42 cells, brain, glioma): no | NA rescue (L-82 cells, lymphoma): yes | NA rescue (LA-N-6 cells, brain, neuroblastoma): yes | NA rescue (LNCAP cells, prostate): yes | NA rescue (M059J cells, brain, malignant glioblastoma, glioma): no | NA rescue (MALME-3 cells, skin (normal)): yes | NA rescue (MG-63 cells, osteosarcoma): no | NA rescue (MM.1S cells, myeloma): yes | NA rescue (MOLP-8 cells, myeloma): partial | NA rescue (MOLT4 cells, lymphocytic leukemia): yes | NA rescue (MONO-MAC-6 cells, lymphocytic leukemia): partial | NA rescue (MRC-5 cells, lung (normal)): yes | NA rescue (NAMALWA cells, lymphoma): no | NA rescue (NCI-H23 cells, lung (NSCLC)): yes | NA rescue (NCI-H69 cells, lung (small cell)): no | NA rescue (NCI-H146 cells, lung (small cell)): yes | NA rescue (NCI-H209 cells, lung (small cell)): yes | NA rescue (NCI-H226 cells, lung (NSCLC)): yes | NA rescue (NCI-H322 cells, lung (NSCLC)): no | NA rescue (NCI-H345 cells, lung (small cell)): yes | NA rescue (NCI-H441 cells, lung (NSCLC)): yes | NA rescue (NCI-H596 cells, lung (NSCLC)): partial | NA rescue (NCI-H1299 cells, lung (NSCLC)): yes | NA rescue (NCI-H1437 cells, lung (NSCLC)): yes | NA rescue (NCI-H1568 cells, lung (NSCLC)): yes | NA rescue (NCI-H1792 cells, lung (NSCLC)): yes | NA rescue (NCI-H1944 cells, lung (NSCLC)): yes | NA rescue (NCI-H1993 cells, lung (NSCLC)): yes | NA rescue (OVCAR-3 cells, ovary): yes | NA rescue (PBMC, primary blood): yes | NA rescue (PFSK-1 cells, brain, malignant neuroectodermal tumor): partial | NA rescue (Panc-1 cells, pancreas): yes | NA rescue (RPMI-8226 cells, myeloma): partial | NA rescue (Ramos cells, lymphoma): yes | NA rescue (SAEC, primary lung): yes | NA rescue (SF-268 cells, brain, astrocytoma, anaplastic): no | NA rescue (SF-539 cells, brain, gliosarcoma): yes | NA rescue (SH-SY5Y cells, brain, neuroblastoma, bone marrow met.): no | NA rescue (SHP-77 cells, lung (small cell)): yes | NA rescue (SJSA1 cells, osteosarcoma): yes | NA rescue (SK-ES-1 cells, osteosarcoma): yes | NA rescue (SK-N-FI cells, brain, neuroblastoma, bone marrow met.): no | NA rescue (SK-N-MC cells, brain, neuroepithelioma, supra-orbital met.): no | NA rescue (SK-N-SH cells, brain, neuroblastoma, metastatic): no | NA rescue (SMS-KCNR cells, brain, neuroblastoma, ALK (R1275Q).): yes | NA rescue (SNB-19 cells, brain, glioblastoma): no | NA rescue (SNU182 cells, hepatocellular carcinoma): yes | NA rescue (SNU449 cells, hepatocellular carcinoma): yes | NA rescue (SR-786 cells, lymphoma): no | NA rescue (SU-DHL-1 cells, lymphoma): no | NA rescue (SU-DHL-10 cells, lymphoma): yes | NA rescue (SW1088 cells, brain, astrocytoma): yes | NA rescue (SW1783 cells, brain, astrocytoma): yes | NA rescue (Saos-2 cells, osteosarcoma): yes | NA rescue (T24 cells, bladder): yes | NA rescue (THP-1 cells, lymphocytic leukemia): yes | NA rescue (U251 cells, brain, glioblastoma): no | NA rescue (U-2 OS cells, osteosarcoma): no | NA rescue (U-937 cells, lymphoma): yes | NA rescue (UWB1.289 cells, ovary): yes | NA rescue (Wi-38 cells, lung (normal)): yes | cell lines that completely rescued with NA (of 176 cell lines tested): 113 | cell lines that did not rescue with NA (of 176 cell lines tested): 47 | cell lines that partially rescued with NA (of 176 cell lines tested): 16 | NA rescue (keratinocytes, primary skin): yes | NA rescue (no. 10 cells, brain, glioma, anaplastic): no | NA rescue (no. 11 cells, brain, glioma, anaplastic): partial
